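Five concentrations, 48 hours, 96-well plates. The concentration for 50% growth inhibition is given as GI50. TGI: concentration producing complete growth inhibition.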
Columns and labels:
Experiment in all cases: NCI tumour cell line growth inhibition, 48 h
786-0 renal = test system: 786-0 renal
A498 renal = test system: A498 renal
A549 NSCLC = test system: A549 NSCLC
ACHN renal = test system: ACHN renal
BT-549 breast = test system: BT-549 breast
CAKI-1 renal = test system: CAKI-1 renal
CCRF-CEM leukemia = test system: CCRF-CEM leukemia
COLO 205 colon = test system: COLO 205 colon
DU-145 prostate = test system: DU-145 prostate
EKVX NSCLC = test system: EKVX NSCLC
HCC-2998 colon = test system: HCC-2998 colon
HCT-116 colon = test system: HCT-116 colon
HCT-15 colon = test system: HCT-15 colon
HL-60(TB) leukemia = test system: HL-60(TB) leukemia
HOP-62 NSCLC = test system: HOP-62 NSCLC
HOP-92 NSCLC = test system: HOP-92 NSCLC
HS 578T breast = test system: HS 578T breast
HT29 colon = test system: HT29 colon
IGROV1 ovarian = test system: IGROV1 ovarian
K-562 leukemia = test system: K-562 leukemia
KM12 colon = test system: KM12 colon
LOX IMVI melanoma = test system: LOX IMVI melanoma
M14 melanoma = test system: M14 melanoma
MALME-3M melanoma = test system: MALME-3M melanoma
MCF7 breast = test system: MCF7 breast
MDA-MB-435 = test system: MDA-MB-435
MOLT-4 leukemia = test system: MOLT-4 leukemia
NCI-H226 lung = test system: NCI-H226 lung
NCI-H23 lung = test system: NCI-H23 lung
NCI-H460 lung = test system: NCI-H460 lung
NCI-H522 lung = test system: NCI-H522 lung
NCI/ADR-RES ovarian = test system: NCI/ADR-RES ovarian
OVCAR-3 ovarian = test system: OVCAR-3 ovarian
OVCAR-4 ovarian = test system: OVCAR-4 ovarian
OVCAR-5 ovarian = test system: OVCAR-5 ovarian
OVCAR-8 ovarian = test system: OVCAR-8 ovarian
PC-3 prostate = test system: PC-3 prostate
RPMI-8226 leukemia = test system: RPMI-8226 leukemia
RXF 393 renal = test system: RXF 393 renal
SF-268 CNS = test system: SF-268 CNS
SF-295 CNS = test system: SF-295 CNS
SF-539 CNS = test system: SF-539 CNS
SK-MEL-2 melanoma = test system: SK-MEL-2 melanoma
SK-MEL-28 melanoma = test system: SK-MEL-28 melanoma
SK-MEL-5 melanoma = test system: SK-MEL-5 melanoma
SK-OV-3 ovarian = test system: SK-OV-3 ovarian
SN12C renal = test system: SN12C renal
SNB-75 CNS = test system: SNB-75 CNS
SW-620 colon = test system: SW-620 colon
TK-10 renal = test system: TK-10 renal
U251 CNS = test system: U251 CNS
UACC-257 melanoma = test system: UACC-257 melanoma
UACC-62 melanoma = test system: UACC-62 melanoma
MDA-MB-231 breast = test system: MDA-MB-231 breast
SNB-19 CNS = test system: SNB-19 CNS
SR leukemia = test system: SR leukemia
UO-31 renal = test system: UO-31 renal

## CCCC[C@@H](COC(=O)N(Cc1cccs1)Cc1cccs1)NC(=O)N[C@@H](CC(=O)OC)c1ccc2c(c1)OCO2
786-0 renal
  GI50: > 100 µM
  TGI: > 100 µM
A498 renal
  GI50: > 100 µM
  TGI: > 100 µM
A549 NSCLC
  GI50: 67.7 µM
  TGI: > 100 µM
ACHN renal
  GI50: > 100 µM
  TGI: > 100 µM
BT-549 breast
  GI50: > 100 µM
  TGI: > 100 µM
CAKI-1 renal
  GI50: > 100 µM
  TGI: > 100 µM
CCRF-CEM leukemia
  GI50: > 100 µM
  TGI: > 100 µM
COLO 205 colon
  GI50: > 100 µM
  TGI: > 100 µM
DU-145 prostate
  GI50: > 100 µM
  TGI: > 100 µM
EKVX NSCLC
  GI50: > 100 µM
  TGI: > 100 µM
HCC-2998 colon
  GI50: > 100 µM
  TGI: > 100 µM
HCT-116 colon
  GI50: > 100 µM
  TGI: > 100 µM
HCT-15 colon
  GI50: > 100 µM
  TGI: > 100 µM
HL-60(TB) leukemia
  GI50: > 100 µM
  TGI: > 100 µM
HOP-62 NSCLC
  GI50: > 100 µM
  TGI: > 100 µM
HOP-92 NSCLC
  GI50: > 100 µM
  TGI: > 100 µM
HS 578T breast
  GI50: > 100 µM
  TGI: > 100 µM
HT29 colon
  GI50: > 100 µM
  TGI: > 100 µM
IGROV1 ovarian
  GI50: > 100 µM
  TGI: > 100 µM
K-562 leukemia
  GI50: 59.6 µM
  TGI: > 100 µM
KM12 colon
  GI50: > 100 µM
  TGI: > 100 µM
LOX IMVI melanoma
  GI50: > 100 µM
  TGI: > 100 µM
M14 melanoma
  GI50: > 100 µM
  TGI: > 100 µM
MALME-3M melanoma
  GI50: > 100 µM
  TGI: > 100 µM
MCF7 breast
  GI50: > 100 µM
  TGI: > 100 µM
MDA-MB-435
  GI50: > 100 µM
  TGI: > 100 µM
MOLT-4 leukemia
  GI50: 5.19 µM
  TGI: > 100 µM
NCI-H226 lung
  GI50: > 100 µM
  TGI: > 100 µM
NCI-H23 lung
  GI50: > 100 µM
  TGI: > 100 µM
NCI-H460 lung
  GI50: > 100 µM
  TGI: > 100 µM
NCI-H522 lung
  GI50: > 100 µM
  TGI: > 100 µM
NCI/ADR-RES ovarian
  GI50: > 100 µM
  TGI: > 100 µM
OVCAR-3 ovarian
  GI50: > 100 µM
  TGI: > 100 µM
OVCAR-4 ovarian
  GI50: > 100 µM
  TGI: > 100 µM
OVCAR-5 ovarian
  GI50: > 100 µM
  TGI: > 100 µM
OVCAR-8 ovarian
  GI50: > 100 µM
  TGI: > 100 µM
PC-3 prostate
  GI50: 9.09 µM
  TGI: > 100 µM
RPMI-8226 leukemia
  GI50: 8.11 µM
  TGI: > 100 µM
RXF 393 renal
  GI50: > 100 µM
  TGI: > 100 µM
SF-268 CNS
  GI50: > 100 µM
  TGI: > 100 µM
SF-295 CNS
  GI50: > 100 µM
  TGI: > 100 µM
SF-539 CNS
  GI50: > 100 µM
  TGI: > 100 µM
SK-MEL-2 melanoma
  GI50: > 100 µM
  TGI: > 100 µM
SK-MEL-28 melanoma
  GI50: > 100 µM
  TGI: > 100 µM
SK-MEL-5 melanoma
  GI50: > 100 µM
  TGI: > 100 µM
SK-OV-3 ovarian
  GI50: > 100 µM
  TGI: > 100 µM
SN12C renal
  GI50: > 100 µM
  TGI: > 100 µM
SNB-75 CNS
  GI50: > 100 µM
  TGI: > 100 µM
SW-620 colon
  GI50: > 100 µM
  TGI: > 100 µM
TK-10 renal
  GI50: > 100 µM
  TGI: > 100 µM
U251 CNS
  GI50: > 100 µM
  TGI: > 100 µM
UACC-257 melanoma
  GI50: > 100 µM
  TGI: > 100 µM
UACC-62 melanoma
  GI50: > 100 µM
  TGI: > 100 µM

## CC1OC(=O)c2ccccc2NC1=O (stereo unspecified)
786-0 renal
  TGI: > 100 µM
A498 renal
  TGI: > 100 µM
A549 NSCLC
  TGI: > 100 µM
ACHN renal
  TGI: > 100 µM
BT-549 breast
  TGI: > 100 µM
CAKI-1 renal
  TGI: > 100 µM
CCRF-CEM leukemia
  TGI: > 100 µM
COLO 205 colon
  TGI: > 100 µM
DU-145 prostate
  TGI: > 100 µM
EKVX NSCLC
  TGI: > 100 µM
HCT-116 colon
  TGI: > 100 µM
HCT-15 colon
  TGI: > 100 µM
HL-60(TB) leukemia
  TGI: > 100 µM
HOP-62 NSCLC
  TGI: > 100 µM
HOP-92 NSCLC
  TGI: > 100 µM
HS 578T breast
  TGI: > 100 µM
HT29 colon
  TGI: > 100 µM
IGROV1 ovarian
  TGI: > 100 µM
K-562 leukemia
  TGI: > 100 µM
KM12 colon
  TGI: > 100 µM
LOX IMVI melanoma
  TGI: > 100 µM
M14 melanoma
  TGI: > 100 µM
MALME-3M melanoma
  TGI: > 100 µM
MDA-MB-231 breast
  TGI: > 100 µM
MDA-MB-435
  TGI: > 100 µM
MOLT-4 leukemia
  TGI: > 100 µM
NCI-H226 lung
  TGI: > 100 µM
NCI-H23 lung
  TGI: > 100 µM
NCI-H460 lung
  TGI: > 100 µM
NCI-H522 lung
  TGI: > 100 µM
NCI/ADR-RES ovarian
  TGI: > 100 µM
OVCAR-3 ovarian
  TGI: > 100 µM
OVCAR-4 ovarian
  TGI: > 100 µM
OVCAR-5 ovarian
  TGI: > 100 µM
OVCAR-8 ovarian
  TGI: > 100 µM
PC-3 prostate
  TGI: > 100 µM
RPMI-8226 leukemia
  TGI: > 100 µM
RXF 393 renal
  TGI: > 100 µM
SF-268 CNS
  TGI: > 100 µM
SF-295 CNS
  TGI: > 100 µM
SF-539 CNS
  TGI: > 100 µM
SK-MEL-2 melanoma
  TGI: > 100 µM
SK-MEL-28 melanoma
  TGI: > 100 µM
SK-MEL-5 melanoma
  TGI: > 100 µM
SK-OV-3 ovarian
  TGI: > 100 µM
SN12C renal
  TGI: > 100 µM
SNB-19 CNS
  TGI: > 100 µM
SNB-75 CNS
  TGI: > 100 µM
SR leukemia
  TGI: > 100 µM
SW-620 colon
  TGI: > 100 µM
TK-10 renal
  TGI: > 100 µM
U251 CNS
  TGI: > 100 µM
UACC-257 melanoma
  TGI: > 100 µM
UACC-62 melanoma
  TGI: > 100 µM
UO-31 renal
  TGI: > 100 µM

## Cc1ccc2c(O)c3c(cc2c1)C(=O)c1c2c(cc(O)c1C3=O)C1(C)OC(O2)C(O)C(N(C)C)C1O (stereo unspecified)
786-0 renal
  TGI: 1.6 µM
A498 renal
  TGI: 2.37 µM
ACHN renal
  TGI: 1.88 µM
COLO 205 colon
  TGI: 1.91 µM
DU-145 prostate
  TGI: 2.23 µM
HCC-2998 colon
  TGI: 2.34 µM
HCT-15 colon
  TGI: 2.44 µM
HOP-92 NSCLC
  TGI: 2.22 µM
K-562 leukemia
  TGI: 0.442 µM
KM12 colon
  TGI: 2.77 µM
NCI/ADR-RES ovarian
  TGI: 2.42 µM
OVCAR-3 ovarian
  TGI: 1.59 µM
OVCAR-5 ovarian
  TGI: 3.73 µM
SF-268 CNS
  TGI: 81 µM
TK-10 renal
  TGI: 3.1 µM

Reference: PubChem BioAssay (NCI)
